Measurements published in US10575537B2, “Saury Maillard peptide and its preparation method and application” (South China University of Technology, priority 2015, dated 2020).
Marks after values point to notes of the source that are not given here.

Experiments:
[1] = molecular target: T1, serum xanthine oxidase (XOD) (Rattus norvegicus, UniProt P22985); assay: serum XOD activity in rats with hyperuricemia induced by oteracil potassium; assay type: in vivo; conditions: 30 days, peptide samples 200 mg/kg, allopurinol 50 mg/kg
T1 construct: Taking 100 μl of serum for determination of XOD; from tissue; host or cells: serum of SD male rats
From the text: (§1) As the index in the following examples, the experimental method of therapeutic effects of the peptide samples on the oteracil potassium-induced hyperuricemia in rats was as follow:
(§2) Animals: 140 SPF grade SD male rats, weight 200±20 g, purchased from Laboratory Animal Center of Guangzhou University of Chinese Medicine.
(§3) Animal grouping and modeling: Taking a total of 140 healthy male SD rats, and randomly dividing them into a normal control group (20 rats) and a model group (120 rats); the model group rats were gavage with oteracil potassium (daily dose: 2 g/kg) for 7 days, then the rat were anesthetized via intraperitoneally injecting 3% pentobarbital sodium (30 mg/kg) after the last administration, their blood was taken from conjunctival (0.5 ml), then centrifuging at 4° C. and 3000 r/min for 15 min, and taking the upper serum to determine the uric acid content, and the rats in the normal control group were treated with a constant volume of solvent by intragastric administration. The rats with the uric acid content above 110 μmol/L were identified to be successful in modeling. […]

[2] = test system: rats with hyperuricemia induced by oteracil potassium; assay: serum creatinine and urea nitrogen content in rats with hyperuricemia induced by oteracil potassium; assay type: in vivo, rat; conditions: 30 days, peptide samples 200 mg/kg, allopurinol 50 mg/kg
From the text: as §1, §2, §3

[3] = test system: rats with hyperuricemia induced by oteracil potassium; assay: serum uric acid content in rats with hyperuricemia induced by oteracil potassium; assay type: in vivo, rat
From the text: as §1, §2
Animal grouping and modeling: Taking a total of 140 healthy male SD rats, and randomly dividing them into a normal control group (20 rats) and a model group (120 rats); the model group rats were gavage with oteracil potassium (daily dose: 2 g/kg) for 7 days, then the rat were anesthetized via intraperitoneally injecting 3% pentobarbital sodium (30 mg/kg) after the last administration, their blood was taken from conjunctival (0.5 ml), then centrifuging at 4° C. and 3000 r/min for 15 min, and taking the upper serum to determine the uric acid content, and the rats in the normal control group were treated with a constant volume of solvent by intragastric administration. The rats with the uric acid content above 110 μmol/L were identified to be successful in modeling.
The rats successful in modeling, according to the uric acid content, was randomly dividing into a model control group (constant volume solvent), a tested peptide sample group (200 mg/kg) and an allopurinol group (50 mg/kg) at 14 rats per group, and the rats were gavage with oteracil potassium (daily dose: 2 g/kg) at a dose of 10 ml/kg, with the model rats treated with a constant volume of distilled water. Administering 3% pentobarbital sodium (30 mg/kg) for 50 min at the end of administering the above-mentioned peptide samples for 10 days and 20 days, drawing the conjunctival blood (0.5 ml), and determining the serum uric acid content; after the 30th day of treatment with anti-gout peptides, drawing the celiac artery blood 5 ml after anesthesia with 3% pentobarbital sodium, and determining the content of serum creatinine and urea nitrogen in addition to determining the serum uric acid content.
Determination of serum uric acid: using the tungstic acid method and strictly following the determination method from the kit instructions.
Statistical treatment: all data is presented as “mean±standard deviation”, t test was performed to determine the significant difference between samples at the 95% confidence interval using SPSS 19.0 software.

[4] = test system: serum adenosine deaminase (ADA); assay: serum ADA activity in rats with hyperuricemia induced by oteracil potassium; assay type: in vivo, rat; conditions: 30 days, peptide samples 200 mg/kg, allopurinol 50 mg/kg
From the text: as §1, §2, §3

T1 sequence (P22985 whole entry): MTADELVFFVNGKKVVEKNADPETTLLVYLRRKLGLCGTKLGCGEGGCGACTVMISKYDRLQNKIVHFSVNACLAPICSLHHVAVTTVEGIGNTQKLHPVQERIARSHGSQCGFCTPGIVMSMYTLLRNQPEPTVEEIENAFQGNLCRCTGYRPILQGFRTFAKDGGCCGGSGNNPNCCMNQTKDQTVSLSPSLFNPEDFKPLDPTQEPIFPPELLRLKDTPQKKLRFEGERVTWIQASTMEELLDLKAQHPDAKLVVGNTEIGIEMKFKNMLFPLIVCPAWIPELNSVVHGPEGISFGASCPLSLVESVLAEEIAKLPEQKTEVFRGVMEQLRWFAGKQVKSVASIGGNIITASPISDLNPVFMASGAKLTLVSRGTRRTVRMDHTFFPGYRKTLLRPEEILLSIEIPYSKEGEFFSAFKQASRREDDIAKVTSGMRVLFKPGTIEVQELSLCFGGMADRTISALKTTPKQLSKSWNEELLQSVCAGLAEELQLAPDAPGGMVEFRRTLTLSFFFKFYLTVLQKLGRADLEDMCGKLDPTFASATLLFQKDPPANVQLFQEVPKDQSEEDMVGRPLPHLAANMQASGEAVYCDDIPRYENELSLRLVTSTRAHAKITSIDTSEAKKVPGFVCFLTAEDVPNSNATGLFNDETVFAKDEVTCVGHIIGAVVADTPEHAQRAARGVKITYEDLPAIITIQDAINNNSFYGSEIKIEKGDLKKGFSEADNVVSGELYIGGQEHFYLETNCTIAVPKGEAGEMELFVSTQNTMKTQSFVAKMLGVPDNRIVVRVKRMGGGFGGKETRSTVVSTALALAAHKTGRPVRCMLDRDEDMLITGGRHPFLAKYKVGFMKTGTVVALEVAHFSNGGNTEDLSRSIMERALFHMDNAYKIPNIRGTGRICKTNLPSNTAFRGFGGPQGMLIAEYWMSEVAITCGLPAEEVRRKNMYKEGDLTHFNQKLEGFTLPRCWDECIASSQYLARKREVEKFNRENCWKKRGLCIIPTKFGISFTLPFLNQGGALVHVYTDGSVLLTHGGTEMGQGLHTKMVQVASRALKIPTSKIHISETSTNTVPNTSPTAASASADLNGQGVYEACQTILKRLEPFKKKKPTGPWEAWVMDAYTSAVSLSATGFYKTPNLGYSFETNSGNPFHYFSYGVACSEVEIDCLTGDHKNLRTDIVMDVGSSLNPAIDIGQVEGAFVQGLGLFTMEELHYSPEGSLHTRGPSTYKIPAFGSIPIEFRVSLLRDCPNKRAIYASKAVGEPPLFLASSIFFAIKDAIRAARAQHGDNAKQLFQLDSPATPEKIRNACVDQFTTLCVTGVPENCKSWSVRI

XOD [1]: 8.61 ± 2.46^b U/L
SMILES: Oc1ncnc2[nH]ncc12 [Allopurinol]
Creatinine [2]: 41.8 ± 13.2^b μmol/L
effect on serum uric acid content, in words ([3]; hyperuricemia model rats, compared with model group): significantly decreased (p<0.01)
Uric acid value, before administration ([3]; serum, SD male rats after modeling with oteracil potassium 2 g/kg daily, baseline before administration): 230.4 ± 19.1 µmol/L
Uric acid value, treatment for 10 days ([3]; serum, gavage, peptide samples 200 mg/kg, allopurinol 50 mg/kg, 10 days): 89.5 ± 22.4^b μmol/L
Uric acid value, treatment for 20 days ([3]; serum, gavage, peptide samples 200 mg/kg, allopurinol 50 mg/kg, 20 days): 94.5 ± 13.9^b μmol/L
Uric acid value, treatment for 30 days ([3]; serum, gavage, peptide samples 200 mg/kg, allopurinol 50 mg/kg, 30 days): 92.8 ± 20.9^b μmol/L
ADA [4]: 12.28 ± 7.88^b U/ml
